Where two headings read alike, the source gives them in different places.
Tested on: cell lines from the Cancer Cell Line Encyclopedia (CCLE)
Experiment: High-throughput cell viability assay, CCLE cell line panel (n = 356)
Format: cell-based, human
Conditions: Homo sapiens
Protocol: Cell lines were partitioned into sensitive and insensitive groups based on compound potency (IC50). […] All other cell lines were obtained from ATCC (American Type Culture Collection), DSMZ (Deutsche Sammlung von Mikroorganismen und Zellkulturen), and HSRRB (Health Science Research Resources Bank) and cultured in RPMI or Dulbecco's modified Eagle's medium plus 10% FBS (Invitrogen, Carlsbad, CA) at 37°C, 5% CO2.

For `COc1cc2c(cc1OC(C)C)[C@H](c1ccc(Cl)cc1)N(c1ccc(N(C)C[C@H]3CC[C@H](N4CCNC(=O)C4)CC3)cc1)C(=O)C2` [NVP-CFC218], the IC50 (A 172, read-out: NVP- CFC218 IC50 (µM), cell line A172, central_nervous_system, TP53 WT) was > 8 µM, the IC50 (A204, A-204, TP53 WT) was 2.18 µM and the IC50 (A2780, A2780, TP53 WT) was 2.24 µM. It also gave an IC50 (A-375, A-375, TP53 WT) of 2.65 µM, an IC50 (ACHN, TP53 WT) of 2.03 µM and an IC50 (AMO1, AMO-1, TP53 WT) of 2.01 µM. For the same molecule, the IC50 (AN3-CA, AN3 CA, TP53 MUT) was > 8 µM, the IC50 (ASPC1, AsPC-1, TP53 MUT) was > 8 µM and the IC50 (AU565, AU565, TP53 MUT) was > 8 µM. The IC50 (BCPAP, B-CPAP, TP53 MUT) was > 8 µM, the IC50 (BDCM, TP53 WT) was 0.7 µM and the IC50 (BEN, TP53 MUT) was > 8 µM. For the same molecule, the IC50 (BFTC-905, BFTC-905, TP53 MUT) was > 8 µM, the IC50 (BFTC-909, BFTC-909, TP53 MUT) was > 8 µM and the IC50 (BHY, TP53 MUT) was > 8 µM. The IC50 (BICR 6, TP53 MUT) was > 8 µM, the IC50 (BL-41, BL-41, TP53 MUT) was > 8 µM and the IC50 (BL-70, TP53 MUT) was > 8 µM. For the same molecule, the IC50 (BT-20, BT-20, TP53 MUT) was > 8 µM, the IC50 (BT-474, BT-474, TP53 MUT) was > 8 µM and the IC50 (BT-549, BT-549, TP53 MUT) was > 8 µM. For the same molecule, the IC50 (BXPC-3, BxPC-3, TP53 MUT) was > 8 µM, the IC50 (CAKI-2, Caki-2, TP53 WT) was 3.63 µM and the IC50 (CAL-12T, TP53 MUT) was > 8 µM. The IC50 (CAL-78, TP53 MUT) was > 8 µM, the IC50 (CAL-85-1, read-out: NVP- CFC218 IC50 (µM), cell line CAL-85-1, breast, TP53 MUT) was > 8 µM and the IC50 (CAMA-1, read-out: NVP- CFC218 IC50 (µM), cell line CAMA-1, breast, TP53 MUT) was > 8 µM. For the same molecule, the IC50 (CAPAN-1, Capan-1, TP53 MUT) was > 8 µM, the IC50 (CAS-1, TP53 MUT) was > 8 µM and the IC50 (CFPAC-1, CFPAC-1, TP53 MUT) was > 8 µM. For the same molecule, the IC50 (CHL-1, CHL-1, TP53 MUT) was > 8 µM, the IC50 (CHP-212, CHP-212, TP53 WT) was 1.36 µM and the IC50 (CMK-11-5, CMK-11-5, TP53 MUT) was > 8 µM. The IC50 (COLO 205, COLO 205, TP53 MUT) was > 8 µM, the IC50 (COLO 792, TP53 WT) was > 8 µM and the IC50 (COLO-679, COLO-679, TP53 WT) was 0.91 µM. The IC50 (COLO-741, COLO 741, TP53 MUT) was > 8 µM, the IC50 (COR-L23, COR-L23, TP53 WT) was > 8 µM and the IC50 (COV318, COV318, TP53 MUT) was > 8 µM. The IC50 (COV362, COV362, TP53 MUT) was > 8 µM, the IC50 (COV434, COV434, TP53 WT) was 5.89 µM and the IC50 (COV504, read-out: NVP- CFC218 IC50 (µM), cell line COV504, ovary, TP53 MUT) was > 8 µM. The IC50 (COV644, TP53 WT) was > 8 µM, the IC50 (Calu-3, Calu-3, TP53 MUT) was > 8 µM and the IC50 (Calu-6, Calu-6, TP53 MUT) was > 8 µM. The IC50 (Caov-3, Caov-3, TP53 MUT) was > 8 µM, the IC50 (Capan-2, read-out: NVP- CFC218 IC50 (µM), cell line Capan-2, pancreas, TP53 WT) was > 8 µM and the IC50 (ChaGo-K-1, ChaGo-K-1, TP53 MUT) was > 8 µM. For the same molecule, the IC50 (DB, TP53 MUT) was > 8 µM, the IC50 (DBTRG-05MG, TP53 WT) was 4 µM and the IC50 (DEL, TP53 MUT) was > 8 µM. For the same molecule, the IC50 (DK-MG, TP53 WT) was 2.32 µM, the IC50 (DMS-53, DMS 53, TP53 MUT) was > 8 µM and the IC50 (DMS-114, DMS 114, TP53 MUT) was > 8 µM. The IC50 (DOHH-2, DOHH-2, TP53 WT) was 1.18 µM, the IC50 (DU-145, DU 145, TP53 MUT) was > 8 µM and the IC50 (Daoy, TP53 MUT) was > 8 µM. The IC50 (Detroit 562, Detroit 562, TP53 MUT) was > 8 µM, the IC50 (EB2, TP53 MUT) was > 8 µM and the IC50 (EBC-1, EBC-1, TP53 MUT) was > 8 µM. For the same molecule, the IC50 (EFE-184, EFE-184, TP53 MUT) was > 8 µM, the IC50 (EFM-19, EFM-19, TP53 MUT) was > 8 µM and the IC50 (EFO-21, EFO-21, TP53 MUT) was > 8 µM. For the same molecule, the IC50 (EM-2, TP53 MUT) was > 8 µM, the IC50 (ESS-1, read-out: NVP- CFC218 IC50 (µM), cell line ESS-1, endometrium, TP53 MUT) was > 8 µM and the IC50 (FU-OV-1, TP53 MUT) was > 8 µM. The IC50 (FaDu, TP53 MUT) was > 8 µM, the IC50 (Fu97, FU97, TP53 MUT) was > 8 µM and the IC50 (G-361, G-361, TP53 WT) was 3.16 µM. The IC50 (G-401, G-401, TP53 WT) was 1.6 µM, the IC50 (G-402, G-402, TP53 WT) was 2.31 µM and the IC50 (GCIY, TP53 MUT) was > 8 µM. For the same molecule, the IC50 (GI-1, TP53 MUT) was > 8 µM, the IC50 (GMS-10, GMS-10, TP53 MUT) was > 8 µM and the IC50 (GP2d, TP53 WT) was 3.45 µM. The IC50 (Granta-519, GRANTA-519, TP53 WT) was 3.38 µM, the IC50 (H4, TP53 WT) was 2.84 µM and the IC50 (HARA, TP53 MUT) was > 8 µM. The IC50 (HCC15, HCC-15, TP53 MUT) was > 8 µM, the IC50 (HCC70, HCC70, TP53 MUT) was > 8 µM and the IC50 (HCC78, HCC-78, TP53 MUT) was > 8 µM. For the same molecule, the IC50 (HCC1500, HCC1500, TP53 WT) was 4.89 µM, the IC50 (HCC1806, HCC1806, TP53 MUT) was > 8 µM and the IC50 (HCC1954, HCC1954, TP53 MUT) was > 8 µM. For the same molecule, the IC50 (HCC4006, HCC4006, TP53 MUT) was > 8 µM.
